Legend:
SHSY5Y cells = test: MTT cytotoxicity; assay type: cell-based; conditions: 1 hour, described as low cytotoxicity
Procedure: In order to determine the cytotoxicity of cells treated with the compound 4a (R1=R2=Me) and the compound 8a (R1=R2=Me), the metabolic capability of a formazan of SHSY5Y cells with respect to […] (MTT) was evaluated.
More specifically, the cells (100 μL/well) were prepared with the density of about 5×10^3 cells in each well on a 96-well plate. The cells were treated with the compound 4a (R1=R2=Me) and the compound 8a (R1=R2=Me) each having concentrations of 1, 20 and 50 μM, was incubated for 1 hour, were cleaned using a PBS buffer solution, and 25 μL of a MTT solution (5 mg/mL) was added to each well. After the cells were incubated at 37° C. for 2 hours, the media was removed, and a formazan crystal was dissolved in DMSO to measure absorbance using a plate reader. […] Accordingly, it may be determined that the cytotoxicity of the compound 4a (R1=R2=Me) and the compound 8a (R1=R2=Me) was low to be suitable for obtaining a two-photon microscope image in tissue and an animal model.

[1] = Fluorescent properties (emission spectra, fluorescence quantum yield); assay type: physicochemical
Procedure: More specifically, in order to determine the fluorescent properties of two-photon absorbing fluorophores, the inventors of the present invention filled quartz cells having a path length of 1 cm with an ethanol solution (1%-DMSO included) which included the compounds 4a to 7a (R1=R2=Me) having a concentration of 10 μM to measure fluorescence spectra (fluorescence spectra were measured using a photon technical international fluorescence system). The results thereof with normalized fluorescence as a y-axis and light wavelength as an x-axis are shown in FIG. 1(B) and with fluorescence intensity as a y-axis and light wavelength as an x-axis are shown in FIG. 7.
Quartz cells having a path length of 1 cm were filled with a dichloromethane, acetonitrile, ethanol (1%-DMSO included) and PBS buffer solution (10 mM, pH 7.4, 0.1%-DMSO included) which included compound 4a (R1=R2=Me) having a concentration of 1 μM to measure fluorescence spectra.
Further, the fluorescence quantum yield was measured with respect to an ethanol solution including the compounds 4a to 8a (R1=R2=Me) having a concentration of 10 μM, and the result is shown in FIG. 6. Acedan which is mainly used was used as a comparative compound (fluorescence quantum yield, ΦF=0.52, measured in ethanol solution).

[2] = Fluorescence intensity according to pH; assay type: physicochemical; conditions: 10 μM, aqueous solution (1%-DMSO), pH 4 to 10, excitation 500 nm
Procedure: In order to determine the fluorescent properties (y-axis) of the compound 8a (R1=R2=Me) according to the pH (x-axis), quartz cells having a path length of 1 cm were filled with an aqueous solution (1%-DMSO included) which has a pH in the range of 4 to 10 and included the compound 8a (R1=R2=Me) having a concentration of 10 μM to measure the fluorescence spectrum, and the result is shown in FIG. 15.

amyloid beta 42 (Aβ 42) = biological target: T1, amyloid beta 42 (Aβ 42) (Homo sapiens, UniProt P05067); test: Fluorescence spectra according to the presence of amyloid beta 42 and BSA; assay type: binding; conditions: 10 μM compound
T1 construct: according to the presence of amyloid beta 42 (Aβ 42)
T1 sequence (P05067 672-713 limits assumed): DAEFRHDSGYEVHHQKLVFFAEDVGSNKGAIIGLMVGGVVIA
Procedure: Quartz cells having a path length of 1 cm were filled with a PBS buffer solution (10 mM, pH 7.4, 0.1%-DMSO included) or an artificial cerebrospinal fluid (NaCl (124 mM), KCl (3 mM), NaH2PO4 (1.25 mM), MgCl2 (1 mM), NaHCO3 (36 mM), D-gluocose (10 mM), CaCl2(2 mM), 95%-O2, 5%-CO2 (by bubbler), aCSF and 1%-DMSO included) which included the compound 8a (R1=R2=Me) having a concentration of 10 μM to measure fluorescence spectra according to the presence of amyloid beta 42 (Aβ 42) and bovine serum albumin (BSA, 20 μg/mL), and the result is shown in FIG. 4. Referring to FIG. 4, it may be determined that the fluorescence intensity of the compound 8a (R1=R2=Me) was low when an amyloid beta plaque was absent, and the fluorescence intensity of the compound 8a (R1=R2=Me) increased when an amyloid beta plaque was present. […] In order to determine the fluorescent properties (y-axis) of the compound 8a (R1=R2=Me) according to the concentration of an amyloid beta plaque (x-axis), quartz cells having a path length of 1 cm were filled with a PBS buffer solution (1%-DMSO included) which included the compound 8a (R1=R2=Me) having a concentration of 10 μM and an amyloid beta plaque (0-50 μM) to measure fluorescence spectra, and the result is shown in FIG. 14.

amyloid beta plaque = biological target: T2, amyloid beta plaque (Homo sapiens, UniProt P05067); test: In vivo two-photon microscope imaging of amyloid beta plaque in an Alzheimer's disease animal model; set-up: species or system 5XFAD mice
T2 construct: tissue The Jackson Laboratory stock no; 006554; host or cells: brain of living 5XFAD (Tg6799) mice, 13 months old, imaged through a cranial window
T2 sequence (P05067 672-713 limits assumed): as above
Procedure: In order to observe the two-photon microscope image of tissue of mice treated with the compound 8a (R1=R2=Me), 5XFAD mice (13-months-old, The Jackson Laboratory, Bar Harbor, Me., USA; stock no. 006554, Tg6799) were used. An amyloid beta plaque is shown as a typical characteristic of Alzheimer's disease.
All animal experiments were performed after the approval from an animal testing ethics committee. In an open-skull craniotomy surgery, imaging was performed after treatment with the compound 8a (R1=R2=Me) and MeO-X04 which is a well-known amyloid beta plaque fluorophore. The mice were fixed on a stereotactic heating surface using Zoletil 50 (Virbac; intramuscular injection, 0.03 mL) as an anesthetic agent (Seoul, Republic of Korea, 37° C.). After a scalp and periosteum were removed, a hole having a diameter of 3 mm was formed at a distance 1 mm from the bregma and 1 mm from the sagittal suture of a skull, a bone was removed, and then a round coverslip was adhered thereto using Loctite 454. The exposed portion of the skull was covered with a dental acrylic, and dexamethasone (0.2 mg/kg) and carprofen (5 mg/kg) which are anti-inflammatory drugs were used before and after the surgery.
A product manufactured by Carl Zeiss Microscopy GmbH (Oberkochen, Germany; model no. LSM 7 MP two-photon laser scanning microscope system) was used as a two-photon microscope. […] Further, the photo-bleaching process images and the relative fluorescence intensity in […] images before and after irradiation with a light source with respect to the compound 8a (R1=R2=Me) and a complex compound of an amyloid beta plaque are shown in FIG. 18. Referring to FIG. 18, it may be determined that the fluorescence intensity of the compound 8a (R1=R2=Me) decreased about 40% when irradiated with a two-photon light source for 35 minutes.

[3] = Solubility in PBS buffer solution from absorption spectra; assay type: physicochemical; conditions: PBS 10 mM, pH 7.4, DMSO of less than 1%; concentrations of 1, 5 and 10 μM
Procedure: Quartz cells having a path length of 1 cm were filled with a PBS buffer solution (10 mM, pH 7.4, DMSO of less than 1% included) which included the compounds 4a to 7a (R1=R2=Me) each having concentrations of 1, 2, 5 and 10 μM to measure absorption spectra.
Quartz cells having a path length of 1 cm were filled with a PBS buffer solution (10 mM, pH 7.4, DMSO of less than 1% included) which included the compound 8a (R1=R2=Me) each having concentrations of 1, 5, 10, 15 and 20 μM to measure absorption spectra.

[4] = Absorption properties of two-photon absorbing fluorophores; assay type: physicochemical; conditions: 10 μM in ethanol solution (1%-DMSO included)
Procedure: More specifically, in order to determine the absorption properties of two-photon absorbing fluorophores, the inventors of the present invention filled quartz cells (114F-QS, Hellma Analytics) having a path length of 1 cm with an ethanol solution (1%-DMSO included) which included the compounds 4a to 7a (R1=R2=Me) having a concentration of 10 μM to measure absorption spectra. […] The absorption spectra were measured using an HP 8453 UV/Vis spectrophotometer.
Thereafter, a molar extinction coefficient (ε(Lmol^−1 cm^−1)) in a maximum absorption wavelength was calculated with respect to an ethanol solution (1%-DMSO included) which included the compounds 4a to 8a (R1=R2=Me) having a concentration of 10 μM, and the result is shown in FIG. 6. Referring to FIG. 6, it may be determined that the molar extinction coefficients (ε>11,500) for the two-photon absorbing fluorophores (particularly, compounds 4a to 8a (R1=R2=Me)) according to the embodiment of the present invention were larger than that (ε=10,700) of acedan known as a conventional two-photon absorbing fluorophore.

[5] = conventional acedan; cited from earlier work

SMILES: CN(C)c1ccc2cc3c(cc2c1)OC1CCCC(=O)C1=C3 (stereo not shown) [compound 4a, 8-(dimethylamino)-2,3,4a-tetrahydro-1H-benzo[b]xanthene-1-one]
- cytotoxicity (apoptosis) (SHSY5Y cells; 1 μM and 20 μM): 20%
- maximum emission wavelength (λem) compared with acedan ([1]; 1 μM in dichloromethane, acetonitrile, ethanol and PBS buffer solution): longer than that of conventional acedan

SMILES: CN(C)c1ccc2cc3c(cc2c1)OCC(C=C(C#N)C#N)=C3 [compound 8a, 2-(((8-dimethylamino)-2H-benzo[g]chromene-3-yl)methylene)malononitrile]
- fluorescence intensity according to pH [2]: low regardless of pH
- fluorescence intensity when an amyloid beta plaque was present (amyloid beta 42 (Aβ 42); Aβ42 20 μM, PBS (pH 7.4) or aCSF, low when plaque absent): increased
- selective detection of amyloid beta plaque (amyloid beta 42 (Aβ 42); Aβ42 versus BSA 20 μg/mL, PBS or aCSF): selectively detected an amyloid beta plaque
- visualization of amyloid beta plaque in animal model with Alzheimer's disease (amyloid beta plaque; 30 mg/kg intraperitoneal, 13-month-old 5XFAD mice, frontal cortex, 1,000 nm, depth to 300 μm): selectively visualize an amyloid beta plaque
- conformity of image with MeO-X04 image (amyloid beta plaque; 30 mg/kg intraperitoneal, 24 hours before imaging, 1,000 nm, MeO-X04 10 mg/kg, 780 nm): significantly high
- decrease of fluorescence intensity (photo-bleaching) (amyloid beta plaque; complex with amyloid beta plaque, tissue depth 50 μm, two-photon light source for 35 minutes): about 40%
- solubility in a PBS buffer solution [3]: sufficient solubility
- cytotoxicity (apoptosis) (SHSY5Y cells; 1 to 50 μM): 20%

SMILES: CC(=O)c1ccc2cc(N(C)C)ccc2c1 [acedan, 1-(6-dimethylaminonaphthalene-2-yl) ethanone]
- molar extinction coefficient (ε) in a maximum absorption wavelength [4]: 10,700 Lmol^−1 cm^−1
- two-photon absorption efficiency value [5]: ~100 GM
- fluorescence quantum yield ΦF ([1]; measured in ethanol solution, comparative compound): 0.52
